The target of this test is T1, RIPK2 (Homo sapiens, UniProt O43353).
T1 construct: Full length FLAG His tagged RIPK2 was purified from a Baculovirus expression system; FLAG (N); 6His (N); made in house; host or cells: Spodoptera frugiperda (Sf9) insect cells, baculovirus
The test is described as follows: Fluorescent polarization based binding assay at the ATP binding pocket of RIPK2. The note with it: full length FLAG His tagged RIPK2; competition with fluorescently labeled ATP competitive ligand (5 nM); mean of a minimum of 2 experiments. The method, then:
A fluorescent polarization based binding assay was developed to quantitate interaction of novel test compounds at the ATP binding pocket of RIPK2, by competition with a fluorescently labeled ATP competitive ligand. Full length FLAG His tagged RIPK2 was purified from a Baculovirus expression system and was used at a final assay concentration of twice the KDapparent. […] Both the enzyme and ligand were prepared in solutions in 50 mM HEPES pH7.5, 150 mM NaCl, 10 mM MgCl2, 1 mM DTT, and 1 mM CHAPS. Test compounds were prepared in 100% DMSO and 100 nL was dispensed to individual wells of a multiwell plate. Next, 5 ul RIPK2 was added to the test compounds at twice the final assay concentration, and incubated at rt for 10 min. Following the incubation, 5 ul of the fluorescent labeled ligand solution, was added to each reaction, at twice the final assay concentration, and incubated at rt for at least 10 min. Finally, samples were read on an instrument capable of measuring fluorescent polarization. Test compound inhibition was expressed as percent (%) inhibition of internal assay controls.
For concentration/dose response experiments, normalized data were fit and pIC50s determined using conventional techniques.
Gateway® LR cloning was used to site-specifically recombine RIPK2 downstream to an N-terminal FLAG-6His contained within the destination vector pDEST8-FLAG-His6 according to the protocol described by Invitrogen. Transfection into Spodoptera frugiperda (Sf9) insect cells was performed using Cellfectin® (Invitrogen), according to the manufacturer's protocol.

Where a name gives a salt, the structure may show the parent alone.

From patent US9216965B2, “Amino-quinolines as kinase inhibitors” (GlaxoSmithKline Intellectual Property Development Limited, priority 2012, dated 2015) come the findings set out here.

The IC50 is the point on the concentration scale where inhibition reaches its midpoint. Read a low IC50 as greater potency.

T1 sequence (O43353 whole entry): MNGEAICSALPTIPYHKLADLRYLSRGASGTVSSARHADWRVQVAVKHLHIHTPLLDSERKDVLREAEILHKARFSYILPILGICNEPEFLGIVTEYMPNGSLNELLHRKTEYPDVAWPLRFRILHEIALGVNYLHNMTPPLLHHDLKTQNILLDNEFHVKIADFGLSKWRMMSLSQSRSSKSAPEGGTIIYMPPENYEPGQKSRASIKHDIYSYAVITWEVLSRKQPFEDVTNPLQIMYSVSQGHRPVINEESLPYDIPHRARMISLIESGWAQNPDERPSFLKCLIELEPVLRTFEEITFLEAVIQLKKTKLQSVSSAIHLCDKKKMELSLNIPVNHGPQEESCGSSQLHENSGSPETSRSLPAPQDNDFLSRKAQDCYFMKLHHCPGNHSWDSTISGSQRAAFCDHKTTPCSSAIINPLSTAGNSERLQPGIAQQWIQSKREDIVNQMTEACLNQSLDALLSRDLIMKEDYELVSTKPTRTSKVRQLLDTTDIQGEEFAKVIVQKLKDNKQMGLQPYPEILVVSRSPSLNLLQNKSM

In turn, `Cc1n[nH]c(Nc2ccnc3cc(OCC(C)O)c(S(=O)(=O)C(C)(C)C)cc23)c1C` (racemic) [Example 1, 1-((6-(tert-Butylsulfonyl)-4-((3,4-dimethyl-1H-pyrazol-5-yl)amino)quinolin-7-yl)oxy)propan-2-ol] gave an IC50 of 3.98 nM.
`Cc1n[nH]c(Nc2ccnc3cc(OC[C@@H](C)O)c(S(=O)(=O)C(C)(C)C)cc23)c1C` [2(R), (R)-1-((6-(tert-Butylsulfonyl)-4-((3,4-dimethyl-1H-pyrazol-5-yl)amino)quinolin-7-yl)oxy)propan-2-ol, hydrochloride] showed an IC50 of 3.16 nM.
As for `Cc1n[nH]c(Nc2ccnc3cc(OC[C@H](C)O)c(S(=O)(=O)C(C)(C)C)cc23)c1C` [2(S), (S)-1-((6-(tert-butylsulfonyl)-4-((3,4-dimethyl-1H-pyrazol-5-yl)amino)quinolin-7-yl)oxy)propan-2-ol, hydrochloride], the IC50 was 3.16 nM.
Compound `Cc1n[nH]c(Nc2ccnc3cc(OCC(C)(C)O)c(S(=O)(=O)C(C)(C)C)cc23)c1C` [Example 4, 1-((6-(tert-Butylsulfonyl)-4-((3,4-dimethyl-1H-pyrazol-5-yl)amino)quinolin-7-yl)oxy)-2-methylpropan-2-ol] showed an IC50 of 6.31 nM.
Regarding `Cc1n[nH]c(Nc2ccnc3cc(OCC(F)F)c(S(=O)(=O)C(C)(C)C)cc23)c1C` [Example 5, 6-(tert-Butylsulfonyl)-7-(2,2-difluoroethoxy)-N-(3,4-dimethyl-1H-pyrazol-5-yl)quinolin-4-amine], the IC50 was 5.01 nM.
The same measure for `COCCCOc1cc2nccc(Nc3[nH]nc(C)c3C)c2cc1S(=O)(=O)C(C)(C)C` [Example 6, 6-(tert-Butylsulfonyl)-N-(3,4-dimethyl-1H-pyrazol-5-yl)-7-(3-methoxypropoxy)quinolin-4-amine]: 3.98 nM.
In turn, `Cc1[nH]nc(Nc2ccnc3cc(OCC(F)(F)F)c(S(=O)(=O)C(C)(C)C)cc23)c1C` [Example 7, 6-(tert-butylsulfonyl)-N-(4,5-dimethyl-1H-pyrazol-3-yl)-7-(2,2,2-trifluoroethoxy) quinolin-4-amine] showed an IC50 of 5.01 nM.
Take `Cc1n[nH]c(Nc2ccnc3cc(F)c(S(=O)(=O)C(C)(C)C)cc23)c1C` [Example 10, 6-(tert-Butylsulfonyl)-N-(3,4-dimethyl-1H-pyrazol-5-yl)-7-fluoroquinolin-4-amine]: the IC50 was 15.8 nM.
